# Assay results taken from publication PMC8126888 (RSC Medicinal Chemistry, 2020).
# Like-named read-outs stand apart in the source and are kept apart here.
# Legend:
# [1] = tested on: primary peritoneal mouse macrophages (PMM); assay: cells; details: Macrophage
# in vitro [2] = details: human, microsomes, human liver microsomes
# in vitro [3] = details: mouse, microsomes, mouse liver microsomes
# physchem [4] = details: HPLC, Ascentis Express RP Amide column, pH 7.4, eLogD, experimental
# in vitro [5] = details: human, THP-1 cells differentiated with PMA
# in vitro [6] = details: human
# in vitro [7] = details: human, HFF-1 cells
# in vitro [8] = details: human, HepG2 cells
# in vitro [9] = details: PAMPA
# [10] = tested on: Leishmania infantum MHOM/MA(BE)/67/ITMAP263 intracellular amastigotes; assay: microbe, parasite or virus in culture; details: Macrophage, in Mus musculus
# [11] = tested on: Leishmania infantum (MHOM/MA/67/ITMAP-263) intracellular amastigotes in THP-1; assay: microbe, parasite or virus in culture; details: THP-1, read-out: L. infantum MHOM/MA/67/ITMAP263 intracellular amastigotes THP-1 cells IC50
# [12] = tested on: Trypanosoma cruzi, Tulahuen CL2, beta-galactosidase strain; assay: microbe, parasite or virus in culture
# in vitro [13] = details: human, HFF-1 cells; remark: listed apart in the source
# in vitro [14] = details: human, HepG2 cells; remark: listed apart in the source
# in vitro [15] = details: PAMPA; remark: listed apart in the source
# [16] = tested on: L. infantum MHOM/MA/67/ITMAP263 axenic Promastigotes; assay: microbe, parasite or virus in culture; details: Leishmania infantum, read-out: L. infantum MHOM/MA/67/ITMAP263 axenic Promastigotes IC50
# physchem [17] = details: PBS, pH 7.4, aqueous buffer, kinetic from dmso stock
# in vitro [18] = details: human, HepG2 cells; remark: listed apart in the source
# [19] = tested on: axenic L. don. amastigotes (MHOM/SD/62/1S-CL2, LdBOB); assay: microbe, parasite or virus in culture; details: Leishmania donovani, read-out: L. donovani MHOM/SD/62/1SCL2D axenic-cidal amastigotes IC50
# [20] = tested on: L. donovani MHOM/SD/62/1SCL2D intracellular amastigotes; assay: microbe, parasite or virus in culture; details: Leishmania donovani, read-out: L. donovani MHOM/SD/62/1SCL2D intracellular amastigotes IC50
# in vitro [21] = details: plasma, PPB (%)
# in vitro [22] = details: human, HFF-1 cells; remark: listed apart in the source
# in vitro [23] = details: human, HepG2 cells; remark: listed apart in the source
# in vitro [24] = details: PAMPA; remark: listed apart in the source
# [25] = read-out: L. Inf. pIC50, L. infantum intracellular amastigotes (converted)
# [26] = read-out: L. infantum MHOM/MA(BE)/67/ITMAP263 intracellular amastigotes IC50, intracellular amastigotes
# [27] = MRC5, read-out: T. cruzi Tulahuen C4 (LacZ) IC50
# [28] = read-out: L. Inf. pIC50, from L. infantum intracellular amastigote IC50 (converted)
# [29] = read-out: L. Inf. pIC50 (converted)
# [30] = read-out: L. infantum MHOM/MA(BE)/67/ITMAP263 intracellular amastigotes IC50
structure (smiles),measurement,setting,value
CCCN(Cc1ccc(F)cc1)S(=O)(=O)c1cc([S+](C)[O-])ccc1OC (centres unmarked) [DNDI0003578384],IC50,[1]; read-out: PMM IC50,> 64 µM
same,microsomal CLint at 0.5 μM,"in vitro [2]; pH 7.4, HLM CLint",67 µL/min/mg
same,microsomal CLint at 0.5 μM,"in vitro [3]; pH 7.4, MLM CLint",437 µL/min/mg
same,chromatographic logD,physchem [4],3.1
same,CC50 at 120 h,in vitro [5],> 64 µM
same,CC50 at 3 days,in vitro [6],> 64 µM
same,CC50,in vitro [7],> 64 µM
same,CC50,in vitro [8],> 64 µM
same,Papp,in vitro [9],18.6 ×10⁻⁶ cm/s
same,IC50,[10]; [25],11 µM
same,IC50,[10]; [26],11 µM
same,IC50,[11],> 64 µM
same,IC50,[12]; [27],38.5 µM
COc1ccc(CN2CCCC2)cc1S(=O)(=O)N(Cc1ccc(F)cc1)Cc1ccc(F)cc1 [DNDI0003370114],IC50,[1]; read-out: PMM IC50,8 µM
same,microsomal CLint at 0.5 μM,"in vitro [2]; pH 7.4, HLM CLint",62 µL/min/mg
same,microsomal CLint at 0.5 μM,"in vitro [3]; pH 7.4, MLM CLint",144 µL/min/mg
same,chromatographic logD,physchem [4],4.4
same,CC50 at 3 days,in vitro [6],6.87 µM
same,CC50,in vitro [13],13.8 µM
same,CC50,in vitro [14],3.25 µM
same,Papp,in vitro [15],0.64 ×10⁻⁶ cm/s
same,IC50,[10]; [28],2.95 µM
same,IC50,[10]; [26],2.92 µM
same,IC50,[12]; [27],3.27 µM
same,IC50,[16],720 nM
COc1ccc(OC)c(S(=O)(=O)N(Cc2ncccn2)Cc2ncccn2)c1 [DNDI0003370115],IC50,[1]; read-out: PMM IC50,> 64 µM
same,microsomal CLint at 0.5 μM,"in vitro [2]; pH 7.4, HLM CLint",17 µL/min/mg
same,microsomal CLint at 0.5 μM,"in vitro [3]; pH 7.4, MLM CLint",67 µL/min/mg
same,chromatographic logD,physchem [4],1.3
same,CC50 at 3 days,in vitro [6],> 64 µM
same,CC50,in vitro [13],> 64 µM
same,CC50,in vitro [14],> 64 µM
same,Papp,in vitro [15],25.1 ×10⁻⁶ cm/s
same,IC50,[10]; [28],> 64 µM
same,IC50,[10]; [26],> 64 µM
same,IC50,[12]; [27],61.4 µM
same,IC50,[16],> 64000 nM
COc1cc(S(=O)(=O)N(Cc2ccccc2)Cc2ccccc2)c(OC)cc1C [DNDI0002644002],KS PBS - pH 2,,0.41 ug/mL
same,IC50,[1]; read-out: PMM IC50,> 64 µM
same,microsomal CLint at 0.5 μM,"in vitro [2]; pH 7.4, HLM CLint",920 µL/min/mg
same,microsomal CLint at 0.5 μM,"in vitro [3]; pH 7.4, MLM CLint",1080 µL/min/mg
same,solubility kinetic,physchem [17],0.41 µg/mL
same,CC50 at 120 h,in vitro [5],> 50 µM
same,CC50 at 3 days,in vitro [6],> 64 µM
same,CC50,in vitro [18],39 µM
same,IC50,[10]; [29],0.537 µM
same,IC50,[10]; [30],0.54 µM
same,IC50,[19],1500 nM
same,IC50,[12]; [27],> 64 µM
same,IC50,[20],12 µM
COc1ccc(C(=O)N2CCOCC2)cc1S(=O)(=O)N(Cc1ccc(F)cc1)Cc1ccc(C(F)(F)F)nc1 [DNDI0003389644],KS PBS - pH 2 (ug/mL),,3.79 ug/mL
same,IC50,[1]; read-out: PMM IC50 (uM),> 64 µM
same,microsomal CLint at 0.5 μM,"in vitro [2]; pH 7.4, HLM CLint (uL/min/mg)",190 µL/min/mg
same,microsomal CLint at 0.5 μM,"in vitro [3]; pH 7.4, MLM CLint (uL/min/mg)",163 µL/min/mg
same,fraction unbound,in vitro [21],0.0409
same,solubility kinetic,physchem [17],3.32 µg/mL
same,CC50 at 3 days,in vitro [6],> 64 µM
same,CC50,in vitro [22],36.9 µM
same,CC50,in vitro [23],> 64 µM
same,Papp,in vitro [24],10 ×10⁻⁶ cm/s
same,IC50,[10]; [28],1.74 µM
same,IC50,"[10]; read-out: L. infantum MHOM/MA(BE)/67/ITMAP263 intracellular amastigotes IC50 (uM), intracellular amastigotes",1.74 µM
same,IC50,"[12]; MRC5, read-out: T. cruzi Tulahuen C4 (LacZ) IC50 (uM)",3.39 µM
COc1ccc(S(N)(=O)=O)cc1S(=O)(=O)N(Cc1ccccc1)Cc1ccccc1 [DNDI0003578385],IC50,[1]; read-out: PMM IC50,> 64 µM
same,microsomal CLint at 0.5 μM,"in vitro [2]; pH 7.4, HLM CLint",58 µL/min/mg
same,microsomal CLint at 0.5 μM,"in vitro [3]; pH 7.4, MLM CLint",366 µL/min/mg
same,chromatographic logD,physchem [4],3.5
same,CC50 at 120 h,in vitro [5],> 64 µM
same,CC50 at 3 days,in vitro [6],13.3 µM
same,CC50,in vitro [7],22.2 µM
same,CC50,in vitro [8],> 64 µM
same,Papp,in vitro [9],3.76 ×10⁻⁶ cm/s
same,IC50,[10]; [25],0.562 µM
same,IC50,[10]; [26],0.56 µM
same,IC50,[11],5.75 µM
same,IC50,[12]; [27],4.66 µM
CCCCCOc1cc(C)c(Cl)cc1S(=O)(=O)NCc1cccs1 [DNDI0002572712],KS PBS - pH 2,,0.39 ug/mL
same,IC50,[1]; read-out: PMM IC50,40.3 µM
same,microsomal CLint at 0.5 μM,"in vitro [2]; pH 7.4, HLM CLint",693 µL/min/mg
same,microsomal CLint at 0.5 μM,"in vitro [3]; pH 7.4, MLM CLint",693 µL/min/mg
same,solubility kinetic,physchem [17],0.39 µg/mL
same,CC50 at 120 h,in vitro [5],> 50 µM
same,CC50 at 3 days,in vitro [6],44.1 µM
same,CC50,in vitro [18],40 µM
same,IC50,[10]; [29],0.851 µM
same,IC50,[10]; [30],0.85 µM
same,IC50,[19],4400 nM
same,IC50,[12]; [27],12.2 µM
same,IC50,[20],12 µM
